Measured values taken from ChEMBL document CHEMBL5360618, “PepScaf: Harnessing Machine Learning with In Vitro Selection toward De Novo Macrocyclic Peptides against IL-17C/IL-17RE Interaction” (J Med Chem, 2023).
Positions of bridges follow the written chain, without caps; N, C: chain ends. Residues, ends and D or L forms follow the SMILES beside them.

biological target: T1, IL17-RE-IL-17C (Homo sapiens, UniProt Q8NFR9+Q9P0M4); test: Inhibition of IL-17C/IL-17RE interaction (unknown origin) incubated for 1.5 hrs by ELISA method; type: protein-complex assay
T1 sequence (Q9P0M4 whole entry): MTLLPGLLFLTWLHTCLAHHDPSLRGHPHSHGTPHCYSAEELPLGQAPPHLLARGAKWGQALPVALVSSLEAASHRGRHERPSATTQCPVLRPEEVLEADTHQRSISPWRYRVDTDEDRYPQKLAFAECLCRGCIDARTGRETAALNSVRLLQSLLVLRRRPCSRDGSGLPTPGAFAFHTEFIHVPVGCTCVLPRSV
T1 sequence (Q8NFR9 whole entry): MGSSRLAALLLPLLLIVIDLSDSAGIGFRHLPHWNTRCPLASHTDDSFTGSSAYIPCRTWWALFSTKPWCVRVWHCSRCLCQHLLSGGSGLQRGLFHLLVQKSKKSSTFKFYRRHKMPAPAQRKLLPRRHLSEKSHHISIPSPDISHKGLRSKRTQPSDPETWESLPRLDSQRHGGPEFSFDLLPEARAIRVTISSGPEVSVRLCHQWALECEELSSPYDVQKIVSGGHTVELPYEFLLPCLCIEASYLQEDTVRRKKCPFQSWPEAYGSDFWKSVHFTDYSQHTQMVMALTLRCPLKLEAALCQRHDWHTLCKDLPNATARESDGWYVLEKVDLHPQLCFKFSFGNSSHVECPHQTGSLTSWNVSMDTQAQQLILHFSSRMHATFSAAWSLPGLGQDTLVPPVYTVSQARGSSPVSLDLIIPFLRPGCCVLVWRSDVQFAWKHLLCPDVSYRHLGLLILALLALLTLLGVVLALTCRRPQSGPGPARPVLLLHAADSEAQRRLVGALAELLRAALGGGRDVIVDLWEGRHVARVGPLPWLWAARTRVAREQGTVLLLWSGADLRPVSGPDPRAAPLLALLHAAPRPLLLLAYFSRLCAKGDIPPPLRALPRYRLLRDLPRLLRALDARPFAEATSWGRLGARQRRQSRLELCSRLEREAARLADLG

| Structure (SMILES) | IC50 [nM] |
| --- | --- |
| CC[C@H](C)[C@@H]1NC(=O)[C@H](Cc2c[nH]cn2)NC(=O)[C@H](Cc2ccc(O)cc2)NC(=O)CSC[C@@H](C(=O)NCC(N)=O)NC(=O)CNC(=O)[C@H](CC(C)C)NC(=O)[C@H](CCCNC(=N)N)NC(=O)CNC(=O)[C@H](Cc2ccc(O)cc2)NC(=O)[C@H](CC(C)C)NC(=O)[C@H](CO)NC(=O)[C@H](Cc2ccccc2)NC(=O)[C@H](Cc2ccc(O)cc2)NC(=O)[C@H](Cc2ccc(O)cc2)NC1=O ({CH2CO}-YHIYYFSLYGRLGCG-NH2; thioether N-14) | 3 |
| CC[C@H](C)[C@@H]1NC(=O)[C@H](Cc2c[nH]cn2)NC(=O)[C@H](Cc2ccc(O)cc2)NC(=O)CSC[C@@H](C(=O)NCC(N)=O)NC(=O)CNC(=O)[C@H](CC(C)C)NC(=O)[C@H](CO)NC(=O)CNC(=O)[C@H](Cc2ccc(O)cc2)NC(=O)[C@H](CC(C)C)NC(=O)[C@H]([C@@H](C)CC)NC(=O)[C@H](CCCNC(=N)N)NC(=O)[C@H](Cc2ccc(O)cc2)NC(=O)[C@H](Cc2ccc(O)cc2)NC1=O ({CH2CO}-YHIYYRILYGSLGCG-NH2; thioether N-14) | 6.3 |
| CC[C@H](C)[C@@H]1NC(=O)[C@H](Cc2c[nH]cn2)NC(=O)[C@H](Cc2ccc(O)cc2)NC(=O)CSC[C@@H](C(=O)NCC(N)=O)NC(=O)CNC(=O)[C@H](CC(C)C)NC(=O)[C@H](CCCCN)NC(=O)[C@H](CCC(N)=O)NC(=O)[C@H](Cc2ccc(O)cc2)NC(=O)[C@H]([C@@H](C)CC)NC(=O)[C@H](CCC(N)=O)NC(=O)[C@H](CCCNC(=N)N)NC(=O)[C@H](Cc2ccc(O)cc2)NC(=O)[C@H](Cc2ccc(O)cc2)NC1=O ({CH2CO}-YHIYYRQIYQKLGCG-NH2; thioether N-14) | 328 |
| CC[C@H](C)[C@@H]1NC(=O)[C@H](Cc2c[nH]cn2)NC(=O)[C@H](Cc2ccc(O)cc2)NC(=O)CSC[C@@H](C(=O)NCC(N)=O)NC(=O)CNC(=O)[C@H](CC(C)C)NC(=O)[C@H](CO)NC(=O)CNC(=O)[C@H](Cc2ccc(O)cc2)NC(=O)[C@H](CC(C)C)NC(=O)[C@H](CO)NC(=O)[C@H](CO)NC(=O)[C@H](Cc2ccc(O)cc2)NC(=O)[C@H](Cc2ccc(O)cc2)NC1=O ({CH2CO}-YHIYYSSLYGSLGCG-NH2; thioether N-14) | 7 |
| CC(C)C[C@@H]1NC(=O)[C@H](CO)NC(=O)CNC(=O)[C@H](Cc2ccc(O)cc2)NC(=O)[C@H](CC(C)C)NC(=O)[C@H](CO)NC(=O)[C@H](C(C)C)NC(=O)[C@H](Cc2ccc(O)cc2)NC(=O)[C@H](Cc2ccc(O)cc2)NC(=O)[C@H](CC(C)C)NC(=O)[C@H](Cc2c[nH]cn2)NC(=O)[C@H](Cc2ccc(O)cc2)NC(=O)CSC[C@@H](C(=O)NCC(N)=O)NC(=O)CNC1=O ({CH2CO}-YHLYYVSLYGSLGCG-NH2; thioether N-14) | 12 |
| CC[C@H](C)[C@@H]1NC(=O)[C@H](CCCNC(=N)N)NC(=O)[C@H](Cc2ccc(O)cc2)NC(=O)[C@H](Cc2ccc(O)cc2)NC(=O)[C@@H]2CCCN2C(=O)[C@H](Cc2c[nH]cn2)NC(=O)[C@H](Cc2ccc(O)cc2)NC(=O)CSC[C@@H](C(=O)NCC(N)=O)NC(=O)CNC(=O)[C@H](CC(C)C)NC(=O)[C@H](CCC(=O)O)NC(=O)CNC(=O)[C@H](Cc2ccc(O)cc2)NC(=O)[C@H](CC(C)C)NC1=O ({CH2CO}-YHPYYRILYGELGCG-NH2; thioether N-14) | > 30000 |

The next lines start with the values.

| IC50 [nM] | Structure (SMILES) |
| --- | --- |
| 4.5 | CC[C@H](C)[C@@H]1NC(=O)[C@H](Cc2c[nH]cn2)NC(=O)[C@H](Cc2ccc(O)cc2)NC(=O)CSC[C@@H](C(=O)NCC(N)=O)NC(=O)CNC(=O)[C@H](CC(C)C)NC(=O)[C@H](CC(N)=O)NC(=O)CNC(=O)[C@H](Cc2ccc(O)cc2)NC(=O)[C@H](CC(C)C)NC(=O)[C@H]([C@@H](C)CC)NC(=O)[C@H](CCCNC(=N)N)NC(=O)[C@H](Cc2ccc(O)cc2)NC(=O)[C@H](Cc2ccc(O)cc2)NC1=O ({CH2CO}-YHIYYRILYGNLGCG-NH2; thioether N-14) |
| 1.7 | CC[C@H](C)[C@@H]1NC(=O)[C@H](Cc2c[nH]cn2)NC(=O)[C@H](Cc2ccc(O)cc2)NC(=O)CSC[C@@H](C(=O)NCC(N)=O)NC(=O)CNC(=O)[C@H](CC(C)C)NC(=O)[C@H](CC(N)=O)NC(=O)CNC(=O)[C@H](Cc2ccc(O)cc2)NC(=O)[C@H](CC(C)C)NC(=O)[C@H](CO)NC(=O)[C@H](CCCNC(=N)N)NC(=O)[C@H](Cc2ccc(O)cc2)NC(=O)[C@H](Cc2ccc(O)cc2)NC1=O ({CH2CO}-YHIYYRSLYGNLGCG-NH2; thioether N-14) |
| 9.6 | CC(C)C[C@@H]1NC(=O)[C@H](CC(N)=O)NC(=O)CNC(=O)[C@H](Cc2ccc(O)cc2)NC(=O)[C@H](CC(C)C)NC(=O)[C@H](CO)NC(=O)[C@H](C)NC(=O)[C@H](Cc2ccc(O)cc2)NC(=O)[C@H](Cc2ccc(O)cc2)NC(=O)[C@H](CC(C)C)NC(=O)[C@H](Cc2c[nH]cn2)NC(=O)[C@H](Cc2ccc(O)cc2)NC(=O)CSC[C@@H](C(=O)NCC(N)=O)NC(=O)CNC1=O ({CH2CO}-YHLYYASLYGNLGCG-NH2; thioether N-14) |
| 11.3 | CC[C@H](C)[C@@H]1NC(=O)[C@H](CCCNC(=N)N)NC(=O)[C@H](Cc2ccc(O)cc2)NC(=O)[C@H](Cc2ccc(O)cc2)NC(=O)[C@H](CC(C)C)NC(=O)[C@H](Cc2c[nH]cn2)NC(=O)[C@H](Cc2ccc(O)cc2)NC(=O)CSC[C@@H](C(=O)NCC(N)=O)NC(=O)CNC(=O)[C@H](CC(C)C)NC(=O)[C@H](CC(N)=O)NC(=O)CNC(=O)[C@H](Cc2ccc(O)cc2)NC(=O)[C@H](CC(C)C)NC1=O ({CH2CO}-YHLYYRILYGNLGCG-NH2; thioether N-14) |
| 48.8 | CC(C)C[C@@H]1NC(=O)[C@H](CC(N)=O)NC(=O)CNC(=O)[C@H](Cc2ccc(O)cc2)NC(=O)[C@H](CC(C)C)NC(=O)[C@H](CC(C)C)NC(=O)[C@H](CCCNC(=N)N)NC(=O)[C@H](Cc2ccc(O)cc2)NC(=O)[C@H](Cc2ccc(O)cc2)NC(=O)[C@H](CC(C)C)NC(=O)[C@H](Cc2c[nH]cn2)NC(=O)[C@H](Cc2ccc(O)cc2)NC(=O)CSC[C@@H](C(=O)NCC(N)=O)NC(=O)CNC1=O ({CH2CO}-YHLYYRLLYGNLGCG-NH2; thioether N-14) |
| 6.4 | CC(C)C[C@@H]1NC(=O)[C@H](CC(N)=O)NC(=O)CNC(=O)[C@H](Cc2ccc(O)cc2)NC(=O)[C@H](CC(C)C)NC(=O)[C@H](CO)NC(=O)[C@H](C(C)C)NC(=O)[C@H](Cc2ccc(O)cc2)NC(=O)[C@H](Cc2ccc(O)cc2)NC(=O)[C@H](CC(C)C)NC(=O)[C@H](Cc2c[nH]cn2)NC(=O)[C@H](Cc2ccc(O)cc2)NC(=O)CSC[C@@H](C(=O)NCC(N)=O)NC(=O)CNC1=O ({CH2CO}-YHLYYVSLYGNLGCG-NH2; thioether N-14) |
| 5.5 | CC(C)C[C@@H]1NC(=O)[C@H](CC(N)=O)NC(=O)CNC(=O)[C@H](Cc2ccc(O)cc2)NC(=O)[C@H](CC(C)C)NC(=O)[C@H](CO)NC(=O)[C@H](Cc2ccc(O)cc2)NC(=O)[C@H](Cc2ccc(O)cc2)NC(=O)[C@H](Cc2ccc(O)cc2)NC(=O)[C@H](CC(C)C)NC(=O)[C@H](Cc2c[nH]cn2)NC(=O)[C@H](Cc2ccc(O)cc2)NC(=O)CSC[C@@H](C(=O)NCC(N)=O)NC(=O)CNC1=O ({CH2CO}-YHLYYYSLYGNLGCG-NH2; thioether N-14) |
| 26.4 | CC(C)C[C@@H]1NC(=O)[C@H](CC(N)=O)NC(=O)CNC(=O)[C@H](Cc2ccc(O)cc2)NC(=O)[C@H](CC(C)C)NC(=O)[C@H](CC(C)C)NC(=O)[C@H](CCCNC(=N)N)NC(=O)[C@H](Cc2ccc(O)cc2)NC(=O)[C@H](Cc2ccc(O)cc2)NC(=O)[C@H](CCC(N)=O)NC(=O)[C@H](Cc2c[nH]cn2)NC(=O)[C@H](Cc2ccc(O)cc2)NC(=O)CSC[C@@H](C(=O)NCC(N)=O)NC(=O)CNC1=O ({CH2CO}-YHQYYRLLYGNLGCG-NH2; thioether N-14) |
